pIC50: −log10 of the molar value.
Target: T1, PPARγ (Homo sapiens, UniProt P37231)
T1 construct: made in house
T1 sequence (P37231 1-505): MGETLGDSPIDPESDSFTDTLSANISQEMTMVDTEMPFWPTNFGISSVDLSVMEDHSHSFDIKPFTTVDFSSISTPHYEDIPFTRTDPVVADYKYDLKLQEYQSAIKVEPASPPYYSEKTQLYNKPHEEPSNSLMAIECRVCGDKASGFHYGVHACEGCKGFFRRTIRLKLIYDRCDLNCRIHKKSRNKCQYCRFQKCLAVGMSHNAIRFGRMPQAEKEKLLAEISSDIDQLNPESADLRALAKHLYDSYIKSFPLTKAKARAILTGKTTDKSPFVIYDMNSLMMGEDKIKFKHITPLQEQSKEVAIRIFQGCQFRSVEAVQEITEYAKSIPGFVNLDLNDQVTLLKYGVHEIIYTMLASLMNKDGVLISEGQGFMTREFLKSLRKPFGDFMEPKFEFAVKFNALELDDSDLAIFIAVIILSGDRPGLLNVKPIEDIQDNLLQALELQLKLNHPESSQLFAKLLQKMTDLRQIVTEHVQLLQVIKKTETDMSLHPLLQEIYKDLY
Assay: PPARγ ligand binding assay utilizing [3H]-BRL 49653 as the radioligand
Settings: concentration required to reduce by 50% the specific binding of [3H]-BRL 49653
Text: The compounds of the present invention can be evaluated for modulation of the PPARγ receptor using assays such as those described in Jiang, et al., Nature 391:82-86 (1998), Ricote, et al., Nature 391:79-82 (1998) and Lehmann, et al., J. Biol. Chem. 270(12): 12953-12956 (1995). Alternatively, the compounds can be evaluated for their ability to displace radiolabeled BRL 49653 from a PPARγ-GST fusion protein as follows:
PPARγ-GST fusion protein (prepared according to standard procedures), [^3H]—BRL 49653 having 50 Ci/mmol specific activity, Polyfiltronics Unifilter 350 filtration plate and glutathione-Sepharose® beads (from Pharmacia: washed twice with 10× binding buffer in which BSA and DTI can be left out).
Binding buffer (10 mM Tris-HCl, pH 8.0, 50 mM KCI, 10 mM DTT, 0.02% BSA and 0.01% NP-40) is added in 80-μL amounts to the wells of the filtration plate. The test compound is then added in 10 μL of DMSO. The PPARγ-GST fusion protein and radiolabeled BRL compound are premixed in binding buffer containing 10 mM DTT and added in 10-μL amounts to the wells of the plate to provide final concentrations of 1 μg/well of PPARγ-GST fusion protein and 10 nM [^3H]—BRL 49653 compound. The plate is incubated for 15 min. Glutathione-agarose bead is added in 50 μL of binding buffer, and the plate is vigorously shaken for one hour. The plate is washed four times with 200 μL/well of binding buffer (without BSA and DTT). The bottom of the plate is sealed and 200 μL/well of scintillation cocktail is added. The top of the plate is then sealed and the radioactivity is determined.
IC50 values are defined as the concentration of test compounds required to reduce by 50% the specific binding of [^3H]—BRL 49653 and are represented by (+) <30 μM; (++) <10 μM; (+++) <1 μM.

Compound | pIC50
O=S(=O)(Nc1cc(Cl)cc(Oc2nc3ccc(Cl)cc3s2)c1)c1ccc(Cl)cc1Cl [Compound 303, 2,4-Dichloro-N-[3-chloro-5-(6-chloro-benzothiazol-2-yloxy)-phenyl]-benzenesulfonamide] | > 6.00
Cc1cccc2sc(Oc3cc(Cl)cc(NS(=O)(=O)c4ccc(Cl)cc4Cl)c3)nc12 [Compound 294, 2,4-Dichloro-N-[3-chloro-5-(4-methyl-benzothiazol-2-yloxy)-phenyl]-benzenesulfonamide] | 4.52 to 5.00
O=S(=O)(Nc1cc(Cl)c(Oc2nc3ccc(Cl)cc3s2)c(Cl)c1)c1ccc(Br)cc1OC(F)(F)F [Compound 433, 4-Bromo-N-[3,5-dichloro-4-(6-chloro-benzothiazol-2-yloxy)-phenyl]-2-trifluoromethoxy-benzenesulfonamide] | > 6.00
2,4-Dichloro-N-[3,5-dichloro-4-(6-methyl-quinoln-3-yloxy)-phenyl]-5-methyl-benzenesulfonamide [Compound 49] | > 6.00
COc1ccc2nc(Oc3cc(Cl)cc(NS(=O)(=O)c4ccc(Cl)cc4Cl)c3)sc2c1 [Compound 308, 2,4-Dichloro-N-[3-chloro-5-(6-methoxy-benzothiazol-2-yloxy)-phenyl]-benzenesulfonamide] | > 6.00
CS(=O)(=O)c1ccc2nc(Oc3ccc(NS(=O)(=O)c4ccc(C(F)(F)F)cc4Cl)cc3Cl)sc2c1 [Compound 445, 2-Chloro-N-[3-chloro-4-(6-methanesulfonyl-benzothiazol-2-yloxy)-phenyl]-4-trifluoromethyl-benzenesulfonamide] | > 6.00
O=S(=O)(Nc1cc(Cl)c(Sc2cnc3ccccc3c2)c(Cl)c1)c1ccccc1 [Compound 4.2] | > 6.00
COc1ccc(OC)c(S(=O)(=O)Nc2cc(Cl)cc(Oc3nc4cc(Cl)ccc4s3)c2)c1 [Compound 502, N-[3-Chloro-5-(5-chloro-benzothiazole-2-yloxy)-phenyl]-2,5-dimethoxybenzenesulfonamide] | < 4.52
Cc1cc(S(=O)(=O)Nc2cc(F)c(Oc3cnc4ccccc4c3)c(Cl)c2)c(Cl)cc1Cl [Compound 50, N-[3-Chloro-5-fluoro-4-(quinolin-3-yloxy)phenyl]-2,4-dichloro-5-methyl-benzenesulfonamide] | > 6.00
CC(=O)c1ccc(S(=O)(=O)Nc2cc(Cl)c(Oc3nc4ccc(Cl)cc4s3)c(Cl)c2)cc1 [Compound 436, 4-Acetyl-N-[3,5-dichloro-4-(6-chloro-benzothiazol-2-yloxy)-phenyl]-benzenesulfonamide] | 5.00 to 6.00
O=S(=O)(Nc1cc(Cl)c(Cc2cc3ccccc3cn2)c(Cl)c1)c1ccc(Cl)cc1Cl [Compound 238, 2,4-Dichloro-N-(3,5-dichloro-4-isoquinolin-3-ylmethyl-phenyl)-benzenesulfonamide] | > 6.00
COC(=O)c1cccc2cc(Oc3c(Cl)cc(NS(=O)(=O)c4ccc(Cl)cc4Cl)cc3Cl)cnc12 [Compound 46, 3-[2,6-Dichloro-4-(2,4-dichloro-benzenesulfonylamino)-phenoxy]-quinoline-8-carboxylic acid methyl ester] | > 6.00
O=[N+]([O-])c1cc(C(F)(F)F)ccc1S(=O)(=O)Nc1cc(Cl)c(Oc2nc3ccc(Cl)cc3s2)c(Cl)c1 [Compound 435, N-[3,5-Dichloro-4-(6-chloro-benzothiazol-2-yloxy)-phenyl]-2-nitro-4-trifluoromethyl-benzenesulfonamide] | > 6.00
COc1cccc2sc(Oc3c(Cl)cc(NS(=O)(=O)c4cc(C)c(Cl)cc4Cl)cc3Cl)nc12 [Compound 429, 2,4-Dichloro-N-[3,5-dichloro-4-(4-methoxy-benzothiazol-2-yloxy)-phenyl]-5-methyl-benzenesulfonamide] | > 6.00
Cc1cc(S(=O)(=O)Nc2cc(Cl)cc(Cc3nc4cc(Cl)ccc4s3)c2)c(Cl)cc1Cl [Compound 333, 2,4-Dichloro-N-[3-chloro-5-(5-chloro-benzothiazol-2-ylmethyl)-phenyl]-5-methyl-benzenesulfonamide] | > 6.00
O=S(=O)(Nc1cc(Cl)c(Sc2cnc3ccccc3c2)c(Cl)c1)c1ccc(C(F)(F)F)cc1Cl [Compound 4.3] | > 6.00
Cc1ccc2nc(Oc3cc(Cl)cc(NS(=O)(=O)c4ccc(Cl)cc4Cl)c3)sc2c1 [Compound 300, 2,4-Dichloro-N-[3-chloro-5-(6-methyl-benzothiazol-2-yloxy)-phenyl]-benzenesulfonamide] | > 6.00
N#Cc1ccc2sc(Oc3cc(Cl)cc(NS(=O)(=O)c4ccc(Cl)cc4Cl)c3)nc2c1 [Compound 287, 2,4-Dichloro-N-[3-chloro-5-(5-cyano-benzothiazol-2-yloxy)-phenyl]-benzenesulfonamide] | > 6.00
O=S(=O)(Nc1cc(Cl)cc(Oc2nc3cc(Cl)ccc3s2)c1)c1ccc(C(F)(F)F)cc1Cl [Compound 283, 2-Chloro-N-[3-chloro-5-(5-chloro-benzothiazol-2-yloxy)-phenyl]-4-trifluoromethyl-benzenesulfonamide] | 5.00 to 6.00
COc1cccc2sc(Oc3c(Cl)cc(NS(=O)(=O)c4ccc(C(F)(F)F)cc4Cl)cc3Cl)nc12 [Compound 427, 2-Chloro-N-[3,5-dichloro-4-(4-methoxy-benzothiazol-2-yloxy)-phenyl]-4-trifluoromethyl-benzenesulfonamide] | > 6.00
COc1cccc2sc(Oc3cc(Cl)cc(NS(=O)(=O)c4ccc(C(F)(F)F)cc4Cl)c3)nc12 [Compound 296, 2-Chloro-N-[3-chloro-5-(4-methoxy-benzothiazol-2-yloxy)-phenyl]-4-trifluoromethyl-benzenesulfonamide] | 5.00 to 6.00
O=S(=O)(Nc1cc(Cl)c(Cc2ccc3ccccc3n2)c(Cl)c1)c1ccc(Cl)cc1Cl [Compound 225, 2,4-Dichloro-N-(3,5-dichloro-4-quinolin-2-ylmethyl-phenyl)-benzenesulfonamide] | > 6.00
O=S(=O)(Nc1cc(Cl)c([S+]([O-])c2cnc3ccccc3c2)c(Cl)c1)c1ccccc1 (stereo not drawn) [Compound 5.3] | 5.00 to 6.00
O=[N+]([O-])c1ccc2nc(Oc3c(Cl)cc(NS(=O)(=O)c4ccc(C(F)(F)F)cc4Cl)cc3Cl)sc2c1 [Compound 438, 2-Chloro-N-[3,5-dichloro-4-(6-nitro-benzothiazol-2-yloxy)-phenyl]-4-trifluoromethyl-benzenesulfonamide] | > 6.00
O=S(=O)(Nc1cc(Cl)c(Cc2cnc3ccccc3c2)c(Cl)c1)c1ccc(Cl)cc1Cl [Compound 232, 2,4-Dichloro-N-(3,5-dichloro-4-quinolin-3-ylmethyl-phenyl)-benzenesulfonamide] | > 6.00
Cc1cc(S(=O)(=O)Nc2cc(Cl)cc(Oc3nc4ccc(F)cc4s3)c2)c(Cl)cc1Cl [Compound 306, 2,4-Dichloro-N-[3-chloro-5-(6-fluoro-benzothiazol-2-yloxy)-phenyl]-5-methyl-benzenesulfonamide] | > 6.00
CS(=O)(=O)c1ccc2sc(Oc3c(Cl)cc(NS(=O)(=O)c4ccc(C(F)(F)F)cc4Cl)cc3Cl)nc2c1 [Compound 458, 2-Chloro-N-[3,5-dichloro-4-(5-methanesulfonyl-benzothiazol-2-yloxy)-phenyl]-4-trifluoromethyl-benzenesulfonamide] | > 6.00
O=S(=O)(Nc1cc(Cl)c(Oc2nc3c(Cl)cccc3s2)c(Cl)c1)c1ccc(Cl)cc1Cl [Compound 425, 2,4-Dichloro-N-[3,5-dichloro-4-(4-chloro-benzothiazol-2-yloxy)-phenyl]-benzenesulfonamide] | 5.00 to 6.00
O=S(=O)(Nc1cc(Cl)cc(Oc2nc3cc(Cl)ccc3s2)c1)c1ccc(Cl)cc1Cl [Compound 284, 2,4-Dichloro-N-[3-chloro-5-(5-chloro-benzothiazol-2-yloxy)-phenyl]-benzenesulfonamide] | > 6.00
COc1cccc2sc(Oc3cc(Cl)cc(NS(=O)(=O)c4cc(C)c(Cl)cc4Cl)c3)nc12 [Compound 298, 2,4-Dichloro-N-[3-chloro-5-(4-methoxy-benzothiazol-2-yloxy)-phenyl]-5-methyl-benzenesulfonamide] | > 6.00
